Measurements: patent US20200369630A1, “HERBICIDALLY ACTIVE 3-PHENYL-5-TRIFLUOROMETHYLISOXAZOLINE-5-CARBOXAMIDES OF CYCLOPENTYLCARBOXYLIC ACIDS AND ESTERS” (Bayer Aktiengesellschaft, priority 2017, published 2020)

Experiments:
Format in all cases: in vivo
[1] = system: SETVI: Setaria viridis; test: Pre-emergence herbicidal action
Text: (§1) Seeds of monocotyledonous and dicotyledonous weed plants and crop plants are placed in plastic or wood fiber pots and covered with soil. The compounds of the invention, formulated in the form of wettable powders (WP) or as emulsion concentrates (EC), are then applied onto the surface of the covering soil as aqueous suspension or emulsion with addition of 0.5% additive at a water application rate of […] (converted). After the treatment, the pots are placed in a greenhouse and kept under good growth conditions for the trial plants. After about 3 weeks, the effect of the preparations is scored visually in comparison with untreated controls as percentages. For example, 100% activity=the plants have died, 0% activity=like control plants. [table]

[2] = system: VIOTR: Viola tricolor; test: Pre-emergence herbicidal action
Text: as §1

[3] = system: VERPE: Veronica persica; test: Pre-emergence herbicidal action
Text: as §1

[4] = system: ECHCG: Echinochloa crus-galli; test: Pre-emergence herbicidal action; details: Table C1, pre-emergence, 80 g/ha, scored visually after about 3 weeks
Text: as §1

[5] = system: LOLRI: Lolium rigidum; test: Pre-emergence herbicidal action; details: Table C1, pre-emergence, 80 g/ha, scored visually after about 3 weeks
Text: as §1

[6] = system: PHBPU: Ipomoea purpurea; test: Pre-emergence herbicidal action; details: Table C1, pre-emergence, 80 g/ha, scored visually after about 3 weeks
Text: as §1

[7] = system: MATIN: Matricaria inodora; test: Pre-emergence herbicidal action; details: Table C1, pre-emergence, 80 g/ha, scored visually after about 3 weeks
Text: as §1

[8] = system: STEME: Stellaria media; test: Pre-emergence herbicidal action
Text: as §1

[9] = system: HORMU: Hordeum murinum; test: Pre-emergence herbicidal action; details: Table C1, pre-emergence, 80 g/ha, scored visually after about 3 weeks
Text: as §1

[10] = system: ALOMY: Alopecurus myosuroides; test: Pre-emergence herbicidal action
Text: as §1

[11] = system: AMARE: Amaranthus retroflexus; test: Pre-emergence herbicidal action
Text: as §1

[12] = system: AVEFA: Avena fatua; test: Pre-emergence herbicidal action
Text: as §1

[13] = system: ABUTH: Abutilon theophrasti; test: Pre-emergence herbicidal action; details: Table C1, pre-emergence, 80 g/ha, scored visually after about 3 weeks
Text: as §1

[14] = system: VERPE: Veronica persica; test: Post-emergence herbicidal action; details: rated visually after about 3 weeks
Experimental: (§2) [table] Seeds of monocotyledonous and dicotyledonous weeds and crop plants are placed in sandy loam in plastic or wood-fiber pots, covered with soil and cultivated in a greenhouse under controlled growth conditions. 2 to 3 weeks after sowing, the test plants are treated at the one-leaf stage. The compounds of the invention, formulated in the form of wettable powders (WP) or as emulsion concentrates (EC), are then sprayed onto the green parts of the plants as aqueous suspension or emulsion with addition of 0.5% additive at a water application rate of […] (converted). After the test plants had been kept in the greenhouse under optimum growth conditions for about 3 weeks, the activity of the preparations is rated visually in comparison to untreated controls. For example, 100% activity=the plants have died, 0% activity=like control plants.

[15] = system: ECHCG: Echinochloa crus-galli; test: Post-emergence herbicidal action; details: rated visually after about 3 weeks
Experimental: as §2

[16] = system: LOLRI: Lolium rigidum; test: Post-emergence herbicidal action; details: rated visually after about 3 weeks
Experimental: as §2

[17] = system: STEME: Stellaria media; test: Post-emergence herbicidal action
Experimental: as §2

[18] = system: HORMU: Hordeum murinum; test: Post-emergence herbicidal action; details: rated visually after about 3 weeks
Experimental: as §2

[19] = system: POLCO: Polygonum convolvulus; test: Post-emergence herbicidal action; details: rated visually after about 3 weeks
Experimental: as §2

[20] = system: ALOMY: Alopecurus myosuroides; test: Post-emergence herbicidal action; details: rated visually after about 3 weeks
Experimental: as §2

[21] = system: AMARE: Amaranthus retroflexus; test: Post-emergence herbicidal action; details: rated visually after about 3 weeks
Experimental: as §2

[22] = system: AVEFA: Avena fatua; test: Post-emergence herbicidal action; details: rated visually after about 3 weeks
Experimental: as §2

[23] = system: DIGSA; test: Post-emergence herbicidal action; details: Table C3, post-emergence, 320 g/ha, rated visually after about 3 weeks
Experimental: as §2, with “Seeds” for “[table] Seeds”

[24] = system: SETVI: Setaria viridis; test: Post-emergence herbicidal action; details: Table C3, post-emergence, 320 g/ha, rated visually after about 3 weeks
Experimental: as §2

[25] = system: VIOTR: Viola tricolor; test: Post-emergence herbicidal action; details: Table C3, post-emergence, 320 g/ha, rated visually after about 3 weeks
Experimental: as §2

[26] = system: ABUTH: Abutilon theophrasti; test: Post-emergence herbicidal action; details: Second Table C3, superiority with respect to WO 2012/130798, post-emergence, 80 g/ha
Experimental: as §2

[27] = system: POLCO: Polygonum convolvulus; test: Pre-emergence herbicidal action; details: Table C1, pre-emergence, 80 g/ha, scored visually after about 3 weeks
Text: as §1

[28] = Table C1, pre-emergence, 80 g/ha, scored visually after about 3 weeks
[29] = Table C2, post-emergence, dosage 320 (0.32 kg of active substance per hectare)
[30] = Table C2, post-emergence, dosage 320 (0.32 kg of active substance per hectare), rated visually after about 3 weeks
[31] = Table C3, post-emergence, 320 g/ha
[32] = Second Table C4, superiority with respect to WO 2012/130798, pre-emergence, 20 g/ha
[33] = Table C4, post-emergence, 320 g/ha

SMILES | Herbicidal action against [%] VERPE [14, 29] [%] | Herbicidal action against [%] ECHCG [15, 29] [%] | Herbicidal action against [%] LOLRI [16, 29] [%] | Herbicidal action against [%] STEME [17, 30] [%] | Herbicidal action against [%] HORMU [18, 29] [%] | Herbicidal action against [%] POLCO [19, 29] [%] | Herbicidal action against [%] ALOMY [20, 29] [%] | Herbicidal action against [%] AMARE [21, 29] [%] | Herbicidal action against [%] AVEFA [22, 29] [%] | Herbicidal action against [%] DIGSA [23] [%] | Herbicidal action against [%] SETVI [24] [%] | Herbicidal action against [%] VIOTR [25] [%] | Herbicidal action against [%] VERPE [14, 31] [%] | Herbicidal action against [%] ECHCG [15, 31] [%] | Herbicidal action against [%] LOLRI [16, 31] [%] | Herbicidal action against [%] HORMU [18, 31] [%] | Herbicidal action against [%] POLCO [19, 31] [%] | Herbicidal action against [%] ALOMY [20, 31] [%] | Herbicidal action against [%] AMARE [21, 31] [%] | Herbicidal action against [%] AVEFA [22, 31] [%] | further results
O=C(OCCCl)C1CCC(NC(=O)C2(C(F)(F)F)CC(c3cc(F)cc(F)c3)=NO2)C1 (mixture of isomers) [Example I-99] | 90 | 90 | 100 | 90 | 90 | 80 | 90 | 90 | 90 |  |  |  |  |  |  |  |  |  |  |  | Herbicidal action against [%] SETVI [1, 28]: 100%; Herbicidal action against [%] VIOTR [2, 28]: 100%; Herbicidal action against [%] VERPE [3, 28]: 100%; Herbicidal action against [%] ECHCG [4]: 90%; Herbicidal action against [%] LOLRI [5]: 100%; Herbicidal action against [%] PHBPU [6]: 90%; Herbicidal action against [%] MATIN [7]: 80%; Herbicidal action against [%] STEME [8, 28]: 100%; Herbicidal action against [%] HORMU [9]: 100%; Herbicidal action against [%] ALOMY [10, 28]: 100%; Herbicidal action against [%] AMARE [11, 28]: 100%; Herbicidal action against [%] AVEFA [12, 28]: 90%; Herbicidal action against [%] ABUTH [13]: 80%
COC(=O)C1CCC(NC(=O)C2(C(F)(F)F)CC(c3cc(C)cc(F)c3)=NO2)C1 (mixture of isomers) [Example I-537] |  |  |  |  |  |  |  |  |  | 90 | 90 | 100 | 100 | 100 | 90 | 80 | 90 | 90 | 100 | 90 | 
Cc1cc(F)cc(C2=NOC(C(=O)NC3CCC(C(=O)OCCCl)C3)(C(F)(F)F)C2)c1 (mixture of isomers) [Example I-574] |  |  |  |  |  |  |  |  |  | 80 | 90 | 80 | 90 | 90 | 90 | 80 | 80 | 100 | 100 | 100 | 
Cc1cc(F)cc(C2=NOC(C(=O)NC3CCC(C(=O)OCC(F)(F)F)C3)(C(F)(F)F)C2)c1 (mixture of isomers) [Example I-580] |  |  |  |  |  |  |  |  |  | 90 | 90 | 100 | 90 | 80 | 90 | 90 | 80 | 90 | 90 | 100 | 
CCOC(=O)C1CCC(NC(=O)C2(C(F)(F)F)CC(c3cc(C)cc(Cl)c3)=NO2)C1 (mixture of isomers) [Example I-808] |  |  |  |  |  |  |  |  |  | 90 | 90 | 80 | 90 | 80 | 90 | 90 | 100 | 90 | 80 | 90 | 
CCOC(=O)C1CCC(NC(=O)C2(C)CC(c3cc(F)cc(F)c3)=NO2)C1 (centres unmarked) [Example 6.736, reference compound] |  |  |  |  |  |  |  |  |  |  |  |  |  |  |  |  |  |  |  |  | Herbicidal action against [%] SETVI [1, 32]: 20%; Herbicidal action against [%] VIOTR [2, 32]: 0%; Herbicidal action against [%] VERPE [3, 32]: 70%; Herbicidal action against [%] STEME [8, 32]: 50%; Herbicidal action against [%] ALOMY [10, 32]: 70%; Herbicidal action against [%] AMARE [11, 32]: 0%; Herbicidal action against [%] AVEFA [12, 32]: 50%; Herbicidal action against [%] STEME ([17]; Second Table C3, superiority with respect to WO 2012/130798, post-emergence, 80 g/ha): 50%; Herbicidal action against [%] ABUTH [26]: 60%
CCOC(=O)[C@@H]1CC[C@H](NC(=O)[C@@]2(C(F)(F)F)CC(c3cc(F)cc(F)c3)=NO2)C1 [Example I-39, ethyl (1R,3S)-3-({[(5R)-3-(3,5-difluorophenyl)-5-(trifluoromethyl)-4,5-dihydro-1,2-oxazol-5-yl]carbonyl}amino)cyclopentanecarboxylate] |  |  |  |  |  |  |  |  |  |  |  |  |  |  |  |  |  |  |  |  | Herbicidal action against [%] SETVI [1, 28]: 100%; Herbicidal action against [%] VIOTR [2, 28]: 100%; Herbicidal action against [%] ECHCG [4]: 100%; Herbicidal action against [%] LOLRI [5]: 100%; Herbicidal action against [%] PHBPU [6]: 80%; Herbicidal action against [%] MATIN [7]: 90%; Herbicidal action against [%] HORMU [9]: 90%; Herbicidal action against [%] POLCO [27]: 100%; Herbicidal action against [%] ALOMY [10, 28]: 100%; Herbicidal action against [%] AMARE [11, 28]: 100%; Herbicidal action against [%] AVEFA [12, 28]: 100%; Herbicidal action against [%] ABUTH [13]: 70%; Herbicidal action against [%] LOLRI [16, 33]: 90%; Herbicidal action against [%] HORMU [18, 33]: 100%; Herbicidal action against [%] POLCO [19, 33]: 80%; Herbicidal action against [%] ALOMY [20, 33]: 100%; Herbicidal action against [%] AMARE [21, 33]: 80%
CC(C)(C)OC(=O)[C@@H]1CC[C@H](NC(=O)[C@@]2(C(F)(F)F)CC(c3cc(F)cc(F)c3)=NO2)C1 [Example I-95] | 80 | 80 | 100 | 90 | 90 | 90 | 90 | 80 | 100 |  |  |  |  |  |  |  |  |  |  |  | 
O=C(OCCCl)[C@@H]1CC[C@H](NC(=O)[C@@]2(C(F)(F)F)CC(c3cc(F)cc(F)c3)=NO2)C1 [Example I-109, 2-chloroethyl-(1R,3S)-3-({[(5R)-3-(3,5-difluorophenyl)-5-(trifluoromethyl)-4,5-dihydro-1,2-oxazol-5-yl]carbonyl}amino)cyclopentanecarboxylate] | 80 | 90 | 80 | 90 | 90 | 80 | 90 | 80 | 90 |  |  |  |  |  |  |  |  |  |  |  | 
O=C(OCC(F)(F)F)[C@@H]1CC[C@H](NC(=O)[C@@]2(C(F)(F)F)CC(c3cc(F)cc(F)c3)=NO2)C1 [Example I-123] | 80 | 80 | 100 | 90 | 90 | 90 | 90 | 80 | 90 |  |  |  |  |  |  |  |  |  |  |  | 
